Data as given in PubChem BioAssay (NCI).
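How tested: cells in 96-well plates exposed to compound for 48 hours at five concentrations. At the GI50, growth is halved. TGI: total growth inhibition.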

Experiments:
Experiment in all cases: inhibition of tumour cell growth, NCI panel, 48 h
K-562 leukemia = test system: K-562 leukemia
MOLT-4 leukemia = test system: MOLT-4 leukemia
IGROV1 ovarian = test system: IGROV1 ovarian
SK-MEL-5 melanoma = test system: SK-MEL-5 melanoma
HT29 colon = test system: HT29 colon
MDA-MB-231 breast = test system: MDA-MB-231 breast
EKVX NSCLC = test system: EKVX NSCLC
MDA-MB-435 = test system: MDA-MB-435
NCI-H522 lung = test system: NCI-H522 lung
OVCAR-5 ovarian = test system: OVCAR-5 ovarian

Row | SMILES | GI50 (K-562 leukemia) | TGI (K-562 leukemia) | GI50 (MOLT-4 leukemia) | TGI (MOLT-4 leukemia) | GI50 (IGROV1 ovarian) | TGI (IGROV1 ovarian) | GI50 (SK-MEL-5 melanoma) | TGI (SK-MEL-5 melanoma) | GI50 (HT29 colon) | TGI (HT29 colon) | GI50 (MDA-MB-231 breast) | TGI (MDA-MB-231 breast) | GI50 (EKVX NSCLC) | TGI (EKVX NSCLC) | GI50 (MDA-MB-435) | TGI (MDA-MB-435) | GI50 (NCI-H522 lung) | TGI (NCI-H522 lung) | GI50 (OVCAR-5 ovarian) | TGI (OVCAR-5 ovarian)
1 | COc1ccc(OC)c2c1[nH]c(=O)c1c3ncccc3cn21 | 3.62 µM | > 100 µM | 3.59 µM | > 100 µM | 3.21 µM | > 100 µM | 3.79 µM | > 100 µM | 1.49 µM | 4.34 µM | 4.87 µM | > 100 µM | 4.91 µM | > 100 µM | 3.85 µM | > 100 µM | 4.71 µM | > 100 µM | – | –
2 | Cc1cn2c(/C=N/N=C(N)N)c(-c3cccs3)nc2s1 | 2.06 µM | 5.43 µM | 2.37 µM | 4.65 µM | 10.5 µM | 27.1 µM | 0.376 µM | 2.19 µM | 2.1 µM | 7.14 µM | 1.9 µM | 5.79 µM | 8.8 µM | 21.1 µM | 4.96 µM | 18.5 µM | 16.9 µM | 47.9 µM | 2.37 µM | 7.37 µM
3 | COc1cc(Nc2nc3ccccc3cc2C(=O)Nc2ccc(F)c(F)c2)cc(OC)c1OC | 3.31 µM | > 100 µM | 2.04 µM | 6.15 µM | 4.08 µM | > 100 µM | 1.62 µM | 3.11 µM | 3.59 µM | > 100 µM | 2.06 µM | 5.69 µM | 2.87 µM | > 100 µM | 2.19 µM | 5.17 µM | 2.07 µM | 6.97 µM | 4.29 µM | > 100 µM
4 | SCCSCCCSCCS | – | > 100 µM | – | 31.2 µM | – | > 100 µM | – | > 100 µM | – | > 100 µM | – | > 100 µM | – | > 100 µM | – | > 100 µM | – | > 100 µM | – | > 100 µM
5 | CC(C)(C)[Si](C)(C)OC1[C@@H](O[Si](C)(C)C(C)(C)C)[C@@H](CNC(=O)NC(=O)CCl)O[C@H]1n1cnc2c(NC(=O)Nc3ccccc3)ncnc21 (stereo partly specified) | 1.09 µM | 3.38 µM | 0.339 µM | 0.913 µM | 0.111 µM | 0.233 µM | 0.833 µM | 1.55 µM | 0.33 µM | 1.05 µM | 0.507 µM | 1.3 µM | 1.01 µM | 2.98 µM | 0.835 µM | 1.75 µM | 0.096 µM | 0.196 µM | 0.911 µM | 2.08 µM
6 | COc1ccc(C(=O)c2cc3c(N)c(C(=O)Nc4ccc(C)cc4)sc3nc2C)cc1 | 1.28 µM | > 100 µM | 3.92 µM | > 100 µM | 6.25 µM | 38.2 µM | 3.14 µM | 11.5 µM | 2.74 µM | 15.2 µM | 2.7 µM | 13.2 µM | 5.59 µM | > 100 µM | 0.275 µM | 1.35 µM | 2.06 µM | 11.2 µM | 7.13 µM | > 100 µM
7 | O=C1/C(=C\c2ccccn2)c2ccccc2N1c1c(Cl)cccc1Cl | 3.89 µM | > 100 µM | 4.2 µM | > 65.7 µM | 2.26 µM | 6.92 µM | 1.61 µM | 3.03 µM | 2.53 µM | 5.75 µM | 2.17 µM | 5.74 µM | 3.47 µM | 17.8 µM | 1.93 µM | 5.03 µM | 1.98 µM | 4.81 µM | 2.05 µM | 4.81 µM
8 | O=Cc1ccc(-c2ccc(-c3nc4ccccc4o3)cc2)o1 | 23.6 µM | > 100 µM | 52 µM | > 100 µM | 38.6 µM | > 100 µM | 22 µM | 62 µM | 53.2 µM | > 100 µM | 21 µM | 61.6 µM | 38.7 µM | > 100 µM | 33.1 µM | > 100 µM | 24.4 µM | 59.3 µM | 29 µM | 95.2 µM
9 | O=c1c(Cl)c(Cl)c(=O)c2sc3cc(Cl)ccc3[nH]c1=2 | – | 34.6 µM | – | 14.5 µM | – | > 100 µM | – | > 100 µM | – | > 100 µM | – | 7.71 µM | – | 28.7 µM | – | > 100 µM | – | 35.2 µM | – | > 100 µM
10 | Nc1ccn(C2OC(COC(=O)C34CC5CC(CC(C5)C3)C4)C(O)C2O)c(=O)n1 (stereo unspecified) | – | > 100 µM | – | > 100 µM | – | > 100 µM | – | > 100 µM | – | > 100 µM | – | > 100 µM | – | > 100 µM | – | > 100 µM | – | > 100 µM | – | > 100 µM
11 | C=C(Nc1ccc([N+](=O)[O-])cc1[N+](=O)[O-])c1c/c(=N\NC(N)=S)c2ccccc2o1 | – | – | – | > 100 µM | – | > 100 µM | – | > 100 µM | – | > 100 µM | – | > 100 µM | – | > 100 µM | – | > 100 µM | – | > 100 µM | – | > 100 µM
12 | Cc1nc(N2CCC3(CC2)CO[C@@H](C)[C@H]3N)c(CO)nc1Sc1ccnc(N)c1Cl | 0.305 µM | > 100 µM | > 100 µM | > 100 µM | 0.629 µM | > 100 µM | 14.1 µM | 35 µM | > 100 µM | > 100 µM | > 100 µM | > 100 µM | 0.449 µM | > 100 µM | > 100 µM | > 100 µM | 1.32 µM | > 100 µM | > 100 µM | > 100 µM
13 | Cc1cc(C)c(Cn2cnc3c(Cl)ncnc32)c(C)c1CCl | 44.2 µM | > 100 µM | 23.3 µM | 63.4 µM | > 100 µM | > 100 µM | > 100 µM | > 100 µM | 25.8 µM | > 100 µM | > 100 µM | > 100 µM | > 100 µM | > 100 µM | > 100 µM | > 100 µM | > 100 µM | > 100 µM | > 100 µM | > 100 µM
14 | CCCCCCCCCCCCCCCCCC(=O)OCC(COC(=O)CCCN)OC(=O)CCCN (stereo unspecified) | – | > 100 µM | – | 70.8 µM | – | 8.01 µM | – | – | – | 33.5 µM | – | 28.2 µM | – | 53.9 µM | – | 33.2 µM | – | 50.4 µM | – | 29.4 µM
